From patent publication US9949980B2, “Drugs to prevent HPV infection” (Wisconsin Alumni Research Foundation, priority 2008, dated 2018)
pIC50: −log10 of the molar value. Read-outs that look alike come from different tables or passages of the source.

What was measured:
[1] = tested on: HPV16, HPV11, and HPV31 pseudovirus; experiment: Infection by HPV16, HPV11 and HPV31 pseudovirus in HaCaT cells (all genotypes together); type: cell-based, HPV; conditions: for IC50 in words for all three HPV pseudovirus infections: HPV16, HPV11, HPV31, 0.1 to 100 μM; for Concentration that completely inhibited all the tested genotypes: HPV16, HPV11, HPV31 pseudovirus
Experimental: (§1) FIG. 4. Compounds 13 and 14 can inhibit infection by multiple anogenital HPVs. Shown are results from infection experiments in HaCaT cells monitoring the efficiency of infection by HPV16, HPV11 and HPV31 pseudovirus carrying the firefly luciferase gene in the absence (0 μM, vehicle only) or increasing concentrations (0.1 to 100 μM) of Compound 13 or 14. The Y axis is the relative efficiency of infection (squares) or cell viability (circles) as a function of drug concentration (X axis). All data points represent the average of values from triplicate samples. […] Data for HPV16 is the also plotted in FIG. 2.
Infection experiments in human keratinocyte cell line, HaCaT, monitoring the efficiency of infection by HPV16, HPV11, and HPV31 pseudovirus carrying the firefly luciferase gene were conducted in the absence or increasing concentrations (0.1 to 100 μM) of Compounds 13 and 14 (see FIG. 4).
In vitro data were collected at 3 μM concentration. […] A human treatment dosage is preferably between 0.1 μM and 100 mM, more preferably between 1 and 10 mM.
(§2) At 4 hours prior to exposure of cell to pseudoviruses, compounds were added to plates in 1% DMSO final concentration at the indicated amounts. Four hours later, 10 multiplicity of infection (M.O.I.) units of HPV16 pseudovirus carrying the plasmid LucF was added to the cells. 72 hours later, cells were lysed and luciferase assays performed using the Luciferase Assay System (Promega Cat. #E1501). For infection studies with HPV11 and HPV31 pseudoviruses, 200 virus genome equivalents (vge) of virus per cell were used. Cell viability was assessed in parallel plates by Luminescent Cell Viability Assay (Promega Cat. #G7571).

HPV11 pseudoviruses = experiment: HPV11 pseudovirus infection in HaCaT cells; type: cell-based
Experimental: as §1
Compounds 13 and 14: inhibition of infection by multiple papillomavirus genotypes. The goal of this study is to identify compounds that inhibit all sexually transmitted HPVs. For this reason, we monitored the ability of Compounds 13 and 14 to inhibit infection of two additional papillomavirus pseudoviruses that were generated using the capsid proteins of two other sexually transmitted HPVs, high risk HPV31 and low risk HPV11. […]
At 4 hours prior to exposure of cell to pseudoviruses, compounds were added to plates in 1% DMSO final concentration at the indicated amounts. […] Cell viability was assessed in parallel plates by Luminescent Cell Viability Assay (Promega Cat. #G7571).

HPV16 pseudovirus [2] = experiment: microbe, parasite or virus in culture; type: cell-based; conditions: Human papillomavirus 16, HaCaT, read-out: IC50, HPV16 pseudovirus infection
Excerpt: (§3) FIG. 2. Dose dependence inhibition of HPV16 pseudovirus infection in a human keratinocyte cell line (HaCaT). Graphed are the dose-dependent effects of lead compounds shown in Table 2 on the efficiency of infection by HPV16 pseudovirus scored by measuring luciferase reporter activity (squares) as well as their effects on cell viability (circles).
(§4) All but one of these compounds (6 is […]) were repurchased and subjected to a tertiary screen performed in the human keratinocyte cell line, HaCaT, and using HPV16 pseudoviruses encoding a third reporter gene, firefly luciferase, transcribed from a different, E1a, promoter.
The infectivity assay was repeated at least twice and each assay was performed in replicate (n≥3).
as §2

HPV16 pseudoviruses [3] = experiment: Virus particle subcellular localization, fluorescently labeled HPV16 pseudovirus; type: cell-based; conditions: 24 hours post infection
Experimental: FIG. 6. Localization of HPV16 pseudovirions 24 hours post infection. Shown are representative confocal images of cells exposed to cyberXX-labeled HPV16 pseudovirus in the absence (FIG. 6B) or presence of Compound 13 (FIG. 6C) and Compound 14 (FIG. 6D). FIG. 6A is a mock infection negative control. Nuclei are stained.
Mechanism of action of Compounds 13 and 14. To begin to assess the mechanism by which Compounds 13 and 14 inhibit HPV infection, we performed fluorescent microscopy studies on cells treated or not treated with Compounds 13 and 14 that were exposed to HPV16 pseudoviruses in which the encapsidated DNA was labeled with a fluorescent intercalating agent. […] At 24 hours post infection we observed a typical perinuclear staining for the fluorescently labeled HPV16 pseudoviruses in both the untreated and drug treated cells.
Virus particle sub cellular localization studies: A target DNA was labeled with Syto-14 (Invitrogen, 25 NM) in 293FT cells before virus was being packaged. HaCaT cells were infected with the labeled HPV pseudovirus for 24 hours, harvested, and fixed with 1% formaldehyde for 30 minutes, followed by permeabilization with 0.2% Triton X-100 for 10 minutes. Cells were blocked with Image-IT FX Signal Enhancer (Invitrogen) for 30 minutes and incubated with rabbit anti-lamin B1 (ab16048, Abcam) antibodies. […] Virus localization was determined by fluorescence.

HPV16 pseudoviruses [4] = experiment: microbe, parasite or virus in culture; type: cell-based; conditions: Human papillomavirus 16, HEK-293T, 48 h
How it was run: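 Viability was read by CellTiter Glo luminescence on the same wells used for the SEAP infection read-out, after 48 hrs further incubation.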

HPV16 pseudovirus [5] = experiment: Luciferase assay: HPV16 pseudovirus with renilla luciferase reporter (HPV16wpA-RL); conditions: renilla luciferase reporter behind HPV16 promoter
Experimental: The protocol for the secondary screen was identical to that of the primary screen with the exception that all volumes were scaled up by a factor of four. RL activity was measured using the Renilla Luciferase Assay System (Promega).

in vitro = conditions: human, Viability (CelTiter Glow)
HaCaT cells = type: cell-based, human; conditions: for CD50 (cytotoxicity): human, 76 h
Excerpt: as §3, §4, §2

[6] = read-out: Infectivity (SEAP Activity), 3 μM HTS standard concentration, 293T cells, 48 hrs
[7] = read-out: Infectivity vs. viability, 3 μM HTS standard concentration, ratio infectivity/viability
[8] = read-out: Primary HTS SEAP vs Viability, Table 2, first pair of columns (c2)
[9] = read-out: Primary HTS SEAP vs Viability, Table 2, second pair of columns (c4)

Row | SMILES | IC50 in words for all three HPV pseudovirus infections [1] | Concentration that completely inhibited all the tested genotypes [1] [µM] | pIC50 (HPV11 pseudoviruses) | pIC50 (HPV16 pseudovirus [2]) | Step at which the compound inhibits infection (entry of labeled pseudovirus) (HPV16 pseudoviruses [3]) | activity at 3 µM (HPV16 pseudoviruses [4]; [6]) [%] | activity at 3 µM (HPV16 pseudoviruses [4]; [7]) [%] | activity at 3 µM (HPV16 pseudoviruses [4]; [8]) [%] | activity at 3 µM (HPV16 pseudoviruses [4]; [9]) [%] | Luciferase assay RL % Average (HPV16 pseudovirus [5]) [%] | viability at 52 h, 3 μM (in vitro) [%] | Toxicity / cytotoxicity in words (HaCaT cells) | CD50 (cytotoxicity) (HaCaT cells) [µM]
1 | CCCn1c2ccccc2c2nnc(SC(CC)C(=O)Nc3ccc(Cl)cn3)nc21 (centres unmarked) [Compound 13, N-(5-chloro-2-pyridinyl)-2-[(5-propyl-5H-[1,2,4]triazino[5,6-b]indol-3-yl)thio]butanamide] | Submicromolar | 10 | > 7.00 | 6.10 | function post-entry | 21.8 | 21.4 | 8.25 | 35.4 | 150.17 | 102 | little to no cytotoxicity | 25
2 | Cc1cc(C(c2ccc(F)cc2)c2cc(C)c(NC(=O)c3ccccc3)c(C)c2)cc(C)c1NC(=O)c1ccccc1 [Compound 14, N,N′[[(4-fluorophenyl)methylene]bis(2,6-dimethyl-4,1-phenylene)]dibenzamide] | Submicromolar | 4 | > 7.00 | 6.70 | function post-entry | 51 | 46.5 | 65.4 | 36.6 | 37.54 | 110 | little to no cytotoxicity | > 100
